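Briefly, cells in 96-well plates were exposed to five compound concentrations for 48 h, and endpoints were estimated by linear interpolation. At the TGI there is no net growth.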 Where a SMILES comes first, the peptide text is derived from it. Bridges are numbered along the chain shown (N, C = ends).

Test in all cases: inhibition of tumour cell growth, NCI panel, 48 h
The test system of assay [1] is SK-OV-3 ovarian.
The subject of assay [2] is EKVX NSCLC.
For assay [3], the system named is M14 melanoma.
The test system of assay [4] is A498 renal.
For assay [5], the system named is HT29 colon.
The subject of assay [6] is MDA-MB-231 breast.
The test system of assay [7] is CCRF-CEM leukemia.
For assay [8], the system named is MOLT-4 leukemia.
Assay [9] deals with RPMI-8226 leukemia.
Assay [10] deals with IGROV1 ovarian.

Regarding `CCOC(=O)c1cnc2n(c1=O)[C@H]1CCCC[C@@H]1N2`, the TGI in assay [1], in [2], in assay [3], in assay [4], in assay [5] and in assay [6] was more than 100 µM each time. Further, the TGI in assay [7], in assay [8], in [9] and in assay [10] was more than 100 µM each time.

Turning to `Cc1cc(NS(=O)(=O)c2ccc(Nc3c4ccccc4nc4c(C(=O)NC(CO)(CO)CO)cccc34)cc2)no1`, the TGI in assay [1], in assay [2], in [3], in assay [4], in assay [5] and in assay [6] was more than 100 µM each time. The TGI is 66.3 µM in assay [7], 49 µM in assay [8], 63.9 µM in assay [9] and more than 100 µM in [10].

As for `O=S1(=O)N=C(SCc2c[nH]c3ccccc23)N(c2ccccc2)c2ccncc21`, the TGI in assay [1] was more than 100 µM; in assay [2], more than 100 µM; in [3], more than 100 µM; in assay [4], 82.2 µM; in assay [5] it was more than 100 µM; in [6], more than 100 µM. Besides, the TGI in [7] and in [8] was more than 100 µM throughout.

Regarding `CC12CC(c3ccccc3O1)C(C(=O)Nc1nccs1)C(=O)N2` (stereo not drawn), the TGI in [1] is more than 100 µM; in assay [2] it was 90.7 µM; in [3] it was more than 100 µM; in [4] it was more than 100 µM; in assay [5] it was more than 100 µM; in [6], more than 100 µM. Further, the TGI in [7], in [8], in assay [9] and in assay [10] was more than 100 µM throughout.

With `COc1ccc(NCn2nc(CCCCCCCCc3nn(CNc4ccc(OC)cc4)c(=S)o3)oc2=S)cc1`, the TGI in assay [1], in assay [2], in [3], in assay [4], in [5] and in assay [6] was more than 100 µM throughout. Besides, the TGI in assay [8] and in assay [9] was more than 100 µM in each case.

On to `CC(=O)N1CCOC12N=NC(C)(C)O2` (stereo not drawn), for which the TGI in [1], in assay [2], in assay [3], in assay [4], in assay [5] and in [6] was more than 100 µM each time. Besides, the TGI in [8], in [9] and in [10] was more than 100 µM throughout.

On to `C[C@@H]([C@H]1CC[C@@]2(C)[C@@H]3CC[C@@H]4C(=CC3=CC[C@]12C)CC[C@H](N(C)C)C4(C)C)N(C)C`, for which the TGI in [1], in assay [2], in assay [3], in [5], in [6] and in assay [7] was more than 100 µM in each case. Besides, the TGI in assay [8], in assay [9] and in [10] was more than 100 µM in each case.

With `Cc1cc(C)c(S(=O)(=O)N(CCCCCN)OCCCN)c(C)c1`, the TGI in assay [2] stood at 30.6 µM; in [3], 37 µM; in [5], 27.9 µM; in [6] it was 49 µM; in assay [7], 45.6 µM; in [8], 33 µM. Moreover, the TGI in assay [9] was 30.6 µM; in [10], 30 µM.

With `Nc1ccnc2c1ncn2[C@H]1C[C@H](O)[C@@H](CO)O1`, the TGI in [2], in assay [3], in assay [4], in [5], in assay [6] and in [7] was more than 100 µM each time. Also, the TGI in assay [8] and in [10] was more than 100 µM throughout.

Take `COC(=O)C1CCC(=O)NCCCCC(NC(=O)C(N)CC(=O)O)C(=O)N1` (stereo not drawn) (H-Asp-Lys-Glu-OMe; lactam 2-3; configuration not given here): the TGI in assay [1], in [2], in [3], in assay [5], in assay [6] and in [7] was more than 100 µM in each case. Besides, the TGI in [8], in assay [9] and in assay [10] was more than 100 µM each time.

For `CCOC(=O)C1=C(N2CCCC2)C(=O)C(C(=O)OCC)C1` (stereo not drawn), the TGI in assay [1], in assay [2], in assay [3], in assay [4], in assay [6] and in assay [8] was more than 100 µM each time. Also, the TGI in assay [9] and in [10] was more than 100 µM each time.

Consider `CCOC(=O)/C=C(/C(=O)OCC)n1cc(C)c(=O)n(Cc2cn(CCCCOC(C)=O)nn2)c1=O`, for which the TGI in assay [1] was more than 100 µM; in assay [2], 22.7 µM; in [5] it was 20.5 µM; in assay [6] it was 65.4 µM; in assay [7] it was 2.31 µM; in assay [8] it was 24.9 µM. Moreover, the TGI in assay [9] worked out at 25.6 µM; in assay [10] it was 29.6 µM.

For `O=C(NNC(=O)c1ccc(Cl)cc1NC(=O)C12CC3CC(CC(C3)C1)C2)c1ccc(Cl)cc1`, the TGI in [1] stood at 60.3 µM; in assay [2] it was 69.8 µM; in assay [3], 57.6 µM; in [5], 77 µM; in assay [6], 51.2 µM; in assay [7] it was 62.5 µM. The figures for the TGI in assay [8], in assay [9] and in [10] were 60.6 µM, 38.4 µM and 32.7 µM, respectively.

Consider `C[C@H](NC(=O)C(C)(Cc1ccc(O)cn1)NC(=O)c1ccccc1)c1ccccc1` (stereo partly drawn), for which the TGI in [2], in [3], in assay [4], in assay [5], in assay [6] and in assay [7] was more than 100 µM throughout. For the same compound, the TGI in assay [8], in assay [9] and in assay [10] was more than 100 µM each time.

The values are drawn from PubChem BioAssay (NCI).
